Reference: patent US7196110B2, “N-substituted tricyclic 3-aminopyrazoles as inhibitors for the treatment of cell proliferative disorders” (Janssen Phamaceutica N.V., priority 2002, dated 2007)

Experiments:
c-Abl kinase = c-Abl kinase (Abelson murine leukemia virus, UniProt P00521); test: Inhibition of c-Abl kinase activity (cell-free, Abl peptide substrate, 33P Flashplate); type: biochemical; details: IC50 for the c-Abl kinase activity
Protocol: The inhibitory activity of compounds within the scope of the invention on c-Abl kinase activity was tested according to the following procedure.
• 1. 10× Kinase Buffer [500 mM Tris-HCl pH=8, 100 mM MgCl2, 1 mM Na3VO4] • 2. 10 mM DTT [final concentration 1 mM] • 3. 10 mM ATP [final concentration 5 μM] (Gibco, Cat No:18330-019, Carlsbad, Calif.) • 4. ^33P-γ-ATP [NEG-602H; 2000–3000 Ci/mmol], 2 μCuries per well at 10 μCi/μl (0.2 μl/well) • 5. Abl enzyme (New England Biolabs, Cat No. P6050L, Beverly, Mass.) at 100 Units/μl use 10 Units/well (0.1 μl/well) • 6. Enzyme Dilution Buffer [50 mM Tris-HCl pH=8.0, 0.1% BSA] • 7. Wash/Stop Buffer [PBS+100 mM EDTA] • 8. NEN Streptavidin Flashplates (New England Nuclear, Cat No. SMP-103, Boston, Mass.). • 9. Abl Peptide Substrate (Biotin-[…]-amide) at 1 mM in 50 mM Tris-HCL pH=8.0. (Use at 1.0 μM). Procedure
Reagents were first mixed according to the following regimen:
The above reaction mixture was dispensed into each well of a Flashplate at 70 μl/well. To test the effect of a compound on Abl kinase activity, the test compound either in a fixed concentration or in serially diluted concentrations in 100% DMSO was added to appropriate wells at 1 μl/well.
Enzyme Abl was diluted in enzyme dilution buffer as following:
The kinase reaction was started by adding 30 μl of diluted Abl enzyme solution to each well on the Flashplate containing hot ATP (2 μCi/well) and Abl peptide substrate (at 1 μM final conc.), except wells of column 12 rows E and F, which were used to calculate the plate background. The Flashplate was swirled to mix and was incubated at 30° C. for 60 minutes. Then, the reaction mixture was discarded and the Flashplate was washed 3 times each with 200 μL Wash/Stop Buffer. Subsequently, each well on the Flashplate was filled with 200 μl of Wash/Stop buffer. The amount of ^33P retained in each well was measured using a Packard TopCount after the plate was sealed with a transparent plate sealer.
In order to test the potency of inhibition of present compounds, an IC50 for an individual compound was measured using the above procedure. As used herein, the IC50 for c-Abl kinase activity refers to the concentration of an inhibitor at which the activity of c-Abl kinase is reduced by one-half as compared with reactions containing no inhibitor.

[1] = target: T1, PDGF-receptor beta enzyme comprising the tyrosine kinase domain (Homo sapiens, UniProt P09619); test: Inhibition of PDGF-receptor kinase activity (cell-free, PLC1 peptide, 33P Flashplate); type: biochemical; details: PDGF-R kinase activity; for inhibition at 10 µM: compound at 10 uM, read-out: Percent Inhibition @ 10 uM; for IC50: read-out: IC50
T1 construct: from amino acid 545 to 1106 of GenBank Access NO: AAA36427
Procedure, shortened: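 Recombinant kinase domain (aa 545–1106) phosphorylated a biotinylated PLC1 peptide with 5 μM ATP plus 33P-γ-ATP, in Tris pH 8, MgCl2, Na3VO4 and 1 mM DTT, for 60 min at 30 °C. Retained 33P was counted after washing. IC50 is the concentration halving activity versus no-inhibitor reactions.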

T1 sequence (P09619 545-1106): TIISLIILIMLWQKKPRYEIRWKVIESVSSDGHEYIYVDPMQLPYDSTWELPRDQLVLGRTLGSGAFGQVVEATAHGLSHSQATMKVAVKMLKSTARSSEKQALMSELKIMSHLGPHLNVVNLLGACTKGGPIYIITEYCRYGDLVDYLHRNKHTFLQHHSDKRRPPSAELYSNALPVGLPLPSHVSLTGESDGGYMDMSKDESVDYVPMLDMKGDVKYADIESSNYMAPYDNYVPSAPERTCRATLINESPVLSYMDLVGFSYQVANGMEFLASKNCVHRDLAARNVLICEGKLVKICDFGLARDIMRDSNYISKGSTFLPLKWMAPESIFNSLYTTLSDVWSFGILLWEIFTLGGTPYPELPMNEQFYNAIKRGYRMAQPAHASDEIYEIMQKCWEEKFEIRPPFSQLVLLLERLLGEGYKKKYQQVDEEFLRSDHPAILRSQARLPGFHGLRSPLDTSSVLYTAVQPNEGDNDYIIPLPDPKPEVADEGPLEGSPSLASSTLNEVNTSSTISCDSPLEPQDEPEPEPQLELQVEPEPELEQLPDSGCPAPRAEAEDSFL
Chain of c-Abl kinase (P00521 115-385): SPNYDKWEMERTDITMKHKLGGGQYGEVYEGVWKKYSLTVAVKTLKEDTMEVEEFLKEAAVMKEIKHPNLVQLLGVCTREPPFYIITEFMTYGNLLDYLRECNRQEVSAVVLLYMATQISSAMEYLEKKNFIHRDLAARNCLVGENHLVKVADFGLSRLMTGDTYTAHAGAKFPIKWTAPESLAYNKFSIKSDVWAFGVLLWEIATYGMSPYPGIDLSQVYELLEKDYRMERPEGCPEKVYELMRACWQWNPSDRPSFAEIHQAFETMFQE

In the case of `CN(C)CCCOc1ccc2c(c1)Cc1c-2n[nH]c1Nc1cccc(F)c1` [Compound 160, [6-(3-Dimethylamino-propoxy)-2,4-dihydro-indeno[1,2-c]pyrazol-3-yl]-(3-fluoro-phenyl)-amine], the IC50 (c-Abl kinase) is reported as 1.02 µM, the inhibition at 10 µM [1] is reported as 94.5% and the IC50 [1] is reported as 0.0585 µM.
In the case of `COc1ccc2c(c1)-c1n[nH]c(Nc3ccc(F)cc3)c1C2` [Compound 170, (4-Fluoro-phenyl)-(7-methoxy-2,4-dihydro-indeno[1,2-c]pyrazol-3-yl)-amine], the IC50 (c-Abl kinase) is reported as 0.075 µM, the inhibition at 10 µM [1] is reported as 95.5% and the IC50 [1] is reported as 0.0268 µM.
For `COc1ccc2c(c1)-c1n[nH]c(Nc3cccc(F)c3)c1C2` [Compound 172, (3-Fluoro-phenyl)-(7-methoxy-2,4-dihydro-indeno[1,2-c]pyrazol-3-yl)-amine], the IC50 (c-Abl kinase) was 0.084 µM, the inhibition at 10 µM [1] was 55% and the IC50 [1] was 0.0133 µM.
`COc1cc2c(cc1OCCCN1CCOCC1)Cc1c-2n[nH]c1Nc1ccc(F)c(Cl)c1` [Compound 179, (3-Chloro-4-fluoro-phenyl)-[7-methoxy-6-(3-morpholin-4-yl-propoxy)-2,4-dihydro-indeno[1,2-c]pyrazol-3-yl]-amine] gave an IC50 (c-Abl kinase) of 0.87 µM, an inhibition at 10 µM [1] of 92% and an IC50 [1] of 0.0712 µM.
Work on `COc1cc2c(cc1OCCCN1CCCC1)Cc1c-2n[nH]c1Nc1cccc(F)c1` [Compound 180, (3-Fluoro-phenyl)-[7-methoxy-6-(3-pyrrolidin-1-yl-propoxy)-2,4-dihydro-indeno[1,2-c]pyrazol-3-yl]-amine] yielded an IC50 (c-Abl kinase) of 0.082 µM, an inhibition at 10 µM [1] of 98.5% and an IC50 [1] of 0.0133 µM.
`COc1cc2c(cc1OCCCN1CCCC1)Cc1c-2n[nH]c1Nc1ccc(F)c(Cl)c1` [Compound 181, (3-Chloro-4-fluoro-phenyl)-[7-methoxy-6-(3-pyrrolidin-1-yl-propoxy)-2,4-dihydro-indeno[1,2-c]pyrazol-3-yl]-amine] was tested, and the IC50 (c-Abl kinase) was 0.056 µM, the inhibition at 10 µM [1] was 74.5% and the IC50 [1] was 0.0154 µM.
`Cc1ccc2c(c1)-c1n[nH]c(Nc3cccc(F)c3)c1C2` [Compound 182, (3-Fluoro-phenyl)-(7-methyl-2,4-dihydro-indeno[1,2-c]pyrazol-3-yl)-amine] gave an IC50 (c-Abl kinase) of 0.093 µM, an inhibition at 10 µM [1] of 107% and an IC50 [1] of 0.005 µM.
With `Cc1ccc2c(c1)-c1n[nH]c(Nc3cc(F)ccc3F)c1C2` [Compound 185, (2,5-Difluoro-phenyl)-(7-methyl-2,4-dihydro-indeno[1,2-c]pyrazol-3-yl)-amine] the IC50 (c-Abl kinase) was 0.666 µM, the inhibition at 10 µM [1] was 84% and the IC50 [1] was 0.05 µM.
`Clc1ccc2c(c1)Cc1c-2n[nH]c1Nc1cccnc1` [Compound 188, (6-Chloro-2,4-dihydro-indeno[1,2-c]pyrazol-3-yl)-pyridin-3-yl-amine] gave an IC50 (c-Abl kinase) of 1.4 µM, an inhibition at 10 µM [1] of 74% and an IC50 [1] of 0.0437 µM.
With `COc1cccc(Nc2[nH]nc3c2Cc2cc(Cl)ccc2-3)c1` [Compound 190, (6-Chloro-2,4-dihydro-indeno[1,2-c]pyrazol-3-yl)-(3-methoxy-phenyl)-amine] the IC50 (c-Abl kinase) was 0.069 µM, the inhibition at 10 µM [1] was 80% and the IC50 [1] was 0.04 µM.
In the case of `COc1cc2c(cc1OCCCN(C)C)Cc1c-2n[nH]c1Nc1cccc(F)c1` [Compound 199, [6-(3-Dimethylamino-propoxy)-7-methoxy-2,4-dihydro-indeno[1,2-c]pyrazol-3-yl]-(3-fluoro-phenyl)-amine], the IC50 (c-Abl kinase) is reported as 0.027 µM, the inhibition at 10 µM [1] is reported as 83% and the IC50 [1] is reported as 0.0059 µM.
With `COc1cc2c(cc1OCCCN(C)C)Cc1c-2n[nH]c1Nc1ccc(F)c(Cl)c1` [Compound 200, (3-Chloro-4-fluoro-phenyl)-[6-(3-dimethylamino-propoxy)-7-methoxy-2,4-dihydro-indeno[1,2-c]pyrazol-3-yl]-amine] the IC50 (c-Abl kinase) was 0.02 µM, the inhibition at 10 µM [1] was 87% and the IC50 [1] was 0.002 µM.
Work on `Fc1ccc(Nc2[nH]nc3c2Cc2cc(F)ccc2-3)cc1` [Compound 201, (6-Fluoro-2,4-dihydro-indeno[1,2-c]pyrazol-3-yl)-(4-fluoro-phenyl)-amine] yielded an IC50 (c-Abl kinase) of 0.217 µM, an inhibition at 10 µM [1] of 96% and an IC50 [1] of 0.009 µM.
`Fc1ccc2c(c1)Cc1c-2n[nH]c1Nc1ccc(F)c(Cl)c1` [Compound 202, (3-Chloro-4-fluoro-phenyl)-(6-fluoro-2,4-dihydro-indeno[1,2-c]pyrazol-3-yl)-amine] gave an IC50 (c-Abl kinase) of 2.65 µM, an inhibition at 10 µM [1] of 77% and an IC50 [1] of 0.0124 µM.
`COc1ccc(OC)c(Nc2[nH]nc3c2Cc2cc(F)ccc2-3)c1` [Compound 203, (2,5-Dimethoxy-phenyl)-(6-fluoro-2,4-dihydro-indeno[1,2-c]pyrazol-3-yl)-amine] was tested, and the IC50 (c-Abl kinase) was 0.16 µM, the inhibition at 10 µM [1] was 86% and the IC50 [1] was 0.016 µM.
`COc1cc(Nc2[nH]nc3c2Cc2cc(F)ccc2-3)cc(OC)c1` [Compound 204, (3,5-Dimethoxy-phenyl)-(6-fluoro-2,4-dihydro-indeno[1,2-c]pyrazol-3-yl)-amine] showed an IC50 (c-Abl kinase) of 0.165 µM, an inhibition at 10 µM [1] of 90% and an IC50 [1] of 0.038 µM.
`COc1ccc(Nc2[nH]nc3c2Cc2cc(F)ccc2-3)cc1OC` [Compound 205, (3,4-Dimethoxy-phenyl)-(6-fluoro-2,4-dihydro-indeno[1,2-c]pyrazol-3-yl)-amine] showed an IC50 (c-Abl kinase) of 0.328 µM, an inhibition at 10 µM [1] of 86% and an IC50 [1] of 0.047 µM.
`COc1cc2c(cc1OC)-c1n[nH]c(Nc3cc(F)cc(F)c3)c1C2` [Compound 207, (3,5-Difluoro-phenyl)-(6,7-dimethoxy-2,4-dihydro-indeno[1,2-c]pyrazol-3-yl)-amine] was tested, and the IC50 (c-Abl kinase) was 0.062 µM, the inhibition at 10 µM [1] was 89% and the IC50 [1] was 0.01 µM.
Molecule `COc1cc2c(cc1OC)-c1n[nH]c(Nc3cccc(SC)c3)c1C2` [Compound 208, (6,7-Dimethoxy-2,4-dihydro-indeno[1,2-c]pyrazol-3-yl)-(3-methylsulfanyl-phenyl)-amine] has an IC50 (c-Abl kinase) of 0.009 µM, an inhibition at 10 µM [1] of 82% and an IC50 [1] of 0.003 µM.
For `CCc1cccc(Nc2[nH]nc3c2Cc2cc(OC)c(OC)cc2-3)c1` [Compound 209, (6,7-Dimethoxy-2,4-dihydro-indeno[1,2-c]pyrazol-3-yl)-(3-ethyl-phenyl)-amine], the IC50 (c-Abl kinase) was 0.007 µM, the inhibition at 10 µM [1] was 99% and the IC50 [1] was 0.0328 µM.
`COc1cc2c(cc1OC)-c1n[nH]c(Nc3ccc(OCc4ccccc4)cc3)c1C2` [Compound 218, (4-Benzyloxy-phenyl)-(6,7-dimethoxy-2,4-dihydro-indeno[1,2-c]pyrazol-3-yl)-amine] showed an IC50 (c-Abl kinase) of 0.439 µM, an inhibition at 10 µM [1] of 81% and an IC50 [1] of 2.01 µM.
Work on `COc1cc2c(cc1OCCCn1ccnc1)Cc1c-2n[nH]c1Nc1cccc(F)c1` [Compound 226, (3-Fluoro-phenyl)-[6-(3-imidazol-1-yl-propoxy)-7-methoxy-2,4-dihydro-indeno[1,2-c]pyrazol-3-yl]-amine] yielded an IC50 (c-Abl kinase) of 0.245 µM, an inhibition at 10 µM [1] of 102% and an IC50 [1] of 0.003 µM.
In the case of `COc1cc2c(cc1OCCCn1ccnc1)Cc1c-2n[nH]c1Nc1ccc(F)c(Cl)c1` [Compound 227, (3-Chloro-4-fluoro-phenyl)-[6-(3-imidazol-1-yl-propoxy)-7-methoxy-2,4-dihydro-indeno[1,2-c]pyrazol-3-yl]-amine], the IC50 (c-Abl kinase) is reported as 0.641 µM, the inhibition at 10 µM [1] is reported as 83.5% and the IC50 [1] is reported as 0.0349 µM.
For `COc1cc2c(cc1OC)C(C)c1c-2n[nH]c1Nc1ccccc1` (stereo not drawn) [Compound 247, (6,7-Dimethoxy-4-methyl-2,4-dihydro-indeno[1,2-c]pyrazol-3-yl)-phenyl-amine], the IC50 (c-Abl kinase) was 0.033 µM, the inhibition at 10 µM [1] was 96% and the IC50 [1] was 0.07 µM.
Molecule `COc1cc2c(cc1OC)C(C)c1c-2n[nH]c1Nc1cccc(F)c1` (stereo not drawn) [Compound 249, (6,7-Dimethoxy-4-methyl-2,4-dihydro-indeno[1,2-c]pyrazol-3-yl)-(3-fluoro-phenyl)-amine] has an IC50 (c-Abl kinase) of 0.035 µM, an inhibition at 10 µM [1] of 96% and an IC50 [1] of 0.006 µM.
Molecule `COc1cccc(Nc2[nH]nc3c2C(C)c2cc(OC)c(OC)cc2-3)c1` (stereo not drawn) [Compound 253, (6,7-Dimethoxy-4-methyl-2,4-dihydro-indeno[1,2-c]pyrazol-3-yl)-(3-methoxy-phenyl)-amine] has an IC50 (c-Abl kinase) of 0.0379 µM, an inhibition at 10 µM [1] of 94% and an IC50 [1] of 0.0165 µM.
